# Measurements reported in US7022736B2, “Enzyme inhibitors” (Istituto Di Ricerche Di Biologia Molecolare P Angeletti SpA, priority 1998, dated 2006).
# Read-outs that look alike come from different tables or passages of the source.
# Experiments:
# [1] = molecular target: T1, HCV RdRp (NS5B RNA-dependent RNA polymerase) (Hepatitis C virus genotype 1b, UniProt P26663); experiment: Inhibition of hepatitis C virus RdRp (poly(A)/oligo(U), [3H]UTP incorporation); assay type: biochemical
# T1 construct: The HCV NS5B protein is the viral RdRp; made in house; host or cells: insect cells infected with recombinant baculovirus
# Experimental: In initial tests, the compounds were tested to see if they were effective as inhibitors of the RNA-dependent RNA polymerase (RdRp) of hepatitis C virus (HCV). The HCV NS5B protein is the viral RdRp; compounds capable of interfering with the activity of this enzyme are thus expected to block viral replication.
# Test for Inhibition of Hepatatis C Virus RdRp
# WO96/37619 describes the production of recombinant HCV RdRp from insect cells infected with recombinant baculovirus encoding the enzyme. […] The reference describes a polymerisation assay using poly (A) as a template and oligo (U) as a primer. Incorporation of tritiated UTP is quantified by measuring acid-insoluble radioactivity. The present inventors have employed this assay to screen the various compounds described above as inhibitors of HCV RdRp and other virally encoded polymerases.
# Incorporation of radioactive UMP was measured as follows. The standard reaction (100 μl) was carried out in a buffer containing 20 mM tris/HCl pH 7.5, 5 mM MgCl2, 1 mM DTT, 50 mM NaCl, 1 mM EDTA, 2 OU Rnasin (Promega), 0.05% Triton X-100, 1 μCi[^3H] UTP (40 Ci/mmol,NEN), 10 μM UTP and 10 μg/ml poly (A). Oligo (U)12 (1 μg/ml, Genset) was added as a primer. The final NSSB enzyme concentration was 20 nM. After 1 hour incubation at 22° C. the reaction was stopped by adding 100 μl of 20% TCA and applying samples to DE81 filters. The filters were washed thoroughly with 5% TCA containing 1M Na2HPO4/NaH2PO4, pH 7.0, rinsed with water and then ethanol, air dried, and the filter-bound radioactivity was measured in the scintillation counter. By carrying out the reaction in the presence of various concentrations of each of the compounds set out above it was possible to determine IC50 values for each compound with the formula: % residual activity=100/(1+[I]/IC50)^s where [I] is the inhibitor concentration and “s” is the slope of the inhibition curve. Test for Inhibition of Hepatitis B Virus Polymerase
# [2] = molecular target: T2, reverse transcriptase of HIV (HIV-1 RT) (Human immunodeficiency virus type 1 group M subtype B, UniProt P03366); experiment: Inhibition of HIV-1 reverse transcriptase ([3H]dTTP incorporation); assay type: biochemical, Human Immunodeficiency Virus-1; conditions: Tables IXa-IXc; unit inferred; NA=not active as an inhibitor
# T2 construct: the reverse transcriptase of HIV (HIV -1RT) from Boehringer Mannhium; purchased Boehringer Mannheim (printed 'Boehringer Mannhium')
# Experimental: Test for Inhibition of Human Immunodeficiency Virus-1 Reverse Transcriptase
# Analogous assays employed the reverse transcriptase of HIV (HIV -1RT) from Boehringer Mannhium.
# Incorporation of radioactive dTTP was measured as follows. The standard reaction (100 μl) was carried out in a buffer containing 50 mM tris/HCl pH 8.2, 2.5 mM MgCl 2, 1 mM DTT, 80 mM KCl, 5 mM EGTA, 0.05% Triton X-100, 1 μCi[3H] dTTP (40 Ci/mmol, NEN), 10 μM […] and 10 μg/ml poly(A)/dT (from Pharmacia).
# [3] = Tables I-VIII, 20 nM NS5B, 1 hour at 22° C., read-out: IC 50 (μM), HCV-polymerase
# [4] = Tables IXa-IXc, unit inferred, read-out: HCV (IC50)
# T1 sequence (P26663 2420-3010): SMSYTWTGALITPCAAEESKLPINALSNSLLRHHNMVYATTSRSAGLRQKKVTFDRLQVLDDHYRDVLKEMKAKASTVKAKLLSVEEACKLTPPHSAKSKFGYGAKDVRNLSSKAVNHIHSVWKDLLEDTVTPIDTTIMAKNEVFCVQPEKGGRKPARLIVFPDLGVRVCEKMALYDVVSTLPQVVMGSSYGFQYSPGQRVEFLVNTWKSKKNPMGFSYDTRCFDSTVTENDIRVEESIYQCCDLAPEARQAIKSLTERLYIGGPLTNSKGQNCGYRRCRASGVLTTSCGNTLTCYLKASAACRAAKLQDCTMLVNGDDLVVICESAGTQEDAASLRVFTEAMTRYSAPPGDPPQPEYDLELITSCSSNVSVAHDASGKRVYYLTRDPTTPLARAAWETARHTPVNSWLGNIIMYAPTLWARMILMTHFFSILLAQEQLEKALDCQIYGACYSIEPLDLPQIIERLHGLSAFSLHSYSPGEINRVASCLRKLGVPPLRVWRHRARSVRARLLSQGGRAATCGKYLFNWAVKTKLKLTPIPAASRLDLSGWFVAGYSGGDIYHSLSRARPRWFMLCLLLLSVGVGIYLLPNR
"IC50 [1, 3]",Structure (SMILES),"IC50 [1, 4]",IC50 [2],IC50 [1]
8.2 µM,Cc1cc(C)c(C(=O)C=C(O)C(=O)O)s1 [Example 192],8.2 µM,,
12 µM,O=C(O)C(O)=CC(=O)c1ccc(Cl)s1 [Example 193],,,
16 µM,O=C(O)C(O)=CC(=O)c1sccc1Cl [Example 194],,,
11.1 µM,O=C(O)C(O)=CC(=O)c1ccc(N2CCCC2)s1 [Example 195],,,
11 µM,O=C(O)C(O)=CC(=O)c1cc(-c2cccnc2)cs1 [Example 197],,,
7.9 µM,O=C(O)C(O)=CC(=O)c1ccc(Br)s1 [Example 198],7.9 µM,,
17 µM,O=C(O)C(O)=CC(=O)c1sccc1Br [Example 199],,,
8.2 µM,O=C(O)C(O)=CC(=O)c1ccc(N2CCCCC2)s1 [Example 200],,,
20 µM,Cc1csc2sc(C(=O)C=C(O)C(=O)O)c(C)c12 [Example 201],,,
19.8 µM,C=CCN(CC=C)c1ccc(C(=O)C=C(O)C(=O)O)s1 [Example 203],,,
11 µM,O=C(O)C(O)=CC(=O)c1cc2c(s1)-c1ccccc1CC2 [Example 204],,,
9.9 µM,O=C(O)C(O)=CC(=O)c1sccc1Cc1cccc(F)c1 [Example 207],,,
11.6 µM,O=C(O)C(O)=CC(=O)c1sccc1Cc1ccc(F)cc1 [Example 208],,,
12.6 µM,O=C(O)C(O)=CC(=O)c1sccc1Sc1ccccc1 [Example 209],,,
82 µM,O=C(O)C(O)=CC(=O)c1ccc(Cc2cccc(Cl)c2)s1 [Example 211],,,
7.5 µM,O=C(O)C(O)=CC(=O)c1sccc1Cc1cccc(Cl)c1 [Example 212],,,
5.9 µM,O=C(O)C(O)=CC(=O)c1sccc1Sc1cccc(F)c1 [Example 213],,,
17 µM,O=C(O)C(O)=CC(=O)c1cc2c(s1)CCCC2c1ccccc1 (stereo not drawn) [Example 214],,,
15.3 µM,O=C(O)C(O)=CC(=O)c1ccc(N2CCc3ccccc3C2)s1 [Example 215],,,
,O=C(O)C(=O)CC(=O)c1ccco1 [Example 216],,,50 µM
58 µM,Cc1ccc(C(=O)CC(=O)C(=O)O)o1 [Example 217],,,
23.7 µM,Cc1c[nH]c(C)c1C(=O)C=C(O)C(=O)O [Example 219],,,
4.6 µM,N#Cc1cccc(Cn2ccc(C(=O)C=C(O)C(=O)O)c2)c1 [Example 220],,,
20.6 µM,Cn1cc(C(=O)C=C(O)C(=O)O)cc1Cc1cccc(F)c1 [Example 221],,,
4 µM,O=C(O)C(O)=CC(=O)c1ccsc1 [Example 222],,,
50 µM,O=C(O)C(O)=CC(=O)c1cc(Cl)sc1Cl [Example 224],,,
17 µM,Cc1ccc(-c2sccc2C(=O)C=C(O)C(=O)O)cc1 [Example 226],,,
15 µM,O=C(O)C(O)=CC(=O)c1ccsc1Cc1cccs1 [Example 227],,,

"IC50 [1, 3]",Structure (SMILES),"IC50 [1, 4]",IC50 [2],IC50 [1]
17.8 µM,O=C(O)C(O)=CC(=O)c1ccsc1Cc1ccc(F)cc1 [Example 228],,,
80 µM,O=C(O)C(O)=CC(=O)c1ccsc1Cc1cccc(F)c1 [Example 229],,,
8.6 µM,O=C(O)C(O)=CC(=O)c1ccsc1Cc1ccccc1F [Example 230],,,
9.4 µM,O=C(O)C(O)=CC(=O)c1ccsc1Cc1ccc(Cl)cc1 [Example 231],,,
11.8 µM,O=C(O)C(O)=CC(=O)c1ccsc1Cc1cccc(Cl)c1 [Example 232],,,
9.2 µM,O=C(O)C(O)=CC(=O)c1ccsc1Cc1ccccc1Cl [Example 233],,,
14.5 µM,O=C(O)C(O)=CC(=O)c1ccsc1Sc1ccc(F)cc1 [Example 234],,,
7.5 µM,O=C(O)C(O)=CC(=O)c1ccsc1Sc1cccc(Cl)c1 [Example 235],,,
26 µM,O=C(O)C(O)=CC(=O)c1csc2ccccc12 [Example 236],,,
14 µM,Cc1cc(C(=O)C=C(O)C(=O)O)c(C)o1 [Example 237],,,
9.4 µM,CC1(C(=O)C=C(O)C(=O)O)CC1 [Example 239],,,
18 µM,CCC(C)C(=O)/C=C(\O)C(=O)O (stereo not drawn) [Example 240],,,
37 µM,CC(C)(C)C(=O)C=C(O)C(=O)O [Example 241],,,
12.8 µM,CC1=CCC(C(=O)C=C(O)C(=O)O)CC1 (stereo not drawn) [Example 242],,,
77 µM,O=C(O)C(O)=CC(=O)C(c1ccccc1)c1ccccc1 [Example 244],,,
81.4 µM,CCCCS(=O)(=O)N1CCCC(Cc2ccc(Cl)cc2)(C(=O)C=C(O)C(=O)O)C1 (stereo not drawn) [Example 245],,,
18 µM,O=C(O)C(O)=CC(=O)C1(c2ccccc2)CCN(S(=O)(=O)c2cccc(Cl)c2)CC1 [Example 246],,,
45 µM,O=C(O)/C(O)=C/C(=O)C1(Cc2ccc(Cl)cc2)CCCN(Cc2ccccc2)C1 (stereo not drawn) [Example 247],,,
10 µM,O=C(O)C(O)=CC(=O)C1(c2ccccc2)CCN(S(=O)(=O)c2cccc3cccnc23)CC1 [Example 248],,,
60 µM,O=C(O)C(O)=CC(=O)C1(c2ccccc2)CCN(C(=O)N(c2ccccc2)c2ccccc2)CC1 [Example 249],,,
17 µM,O=C(O)C(O)=CC(=O)C1(c2ccccc2)CCN(S(=O)(=O)c2ccc(Cl)c(Cl)c2)CC1 [Example 250],,,
21 µM,O=C(O)C(O)=CC(=O)C1(c2ccccc2)CCN(S(=O)(=O)c2cc(Cl)c(Cl)cc2Cl)CC1 [Example 251],,,
61 µM,O=C(O)/C(O)=C/C(=O)C1(Cc2ccc(Cl)cc2)CCCN(S(=O)(=O)c2ccc(Br)cc2)C1 (stereo not drawn) [Example 252],,,
14 µM,O=C(O)C(O)=CC(=O)C1=CCCCC1 [Example 254],,,
16.7 µM,CC1=C(C(=O)C=C(O)C(=O)O)CCC1 [Example 255],,,
25 µM,O=C(O)C(O)=CC(=O)C1CCCCC1 [Example 256],,,
50 µM,O=C(C=C(O)C(=O)O)CC1CCCCC1 [Example 257],,,

Structure (SMILES),"IC50 [1, 3]","IC50 [1, 4]",IC50 [2],IC50 [1]
O=C(O)C(O)=CC(=O)c1ccccc1 [Example 1],5.6 µM,5.6 µM,90 µM,
O=C(O)C(O)=CC(=O)c1cccc(OCc2ccccc2)c1 [Example 4],8 µM,8 µM,> 100 µM,
O=C(O)C(O)=CC(=O)c1cccc(OCc2c(F)cccc2F)c1 [Example 7],2.92 µM,3.3 µM,61 µM,
O=C(O)C(O)=CC(=O)c1ccccc1OCc1ccccc1 [Example 8],44 µM,44 µM,19 µM,
C=CCOc1ccccc1C(=O)C=C(O)C(=O)O [Example 16],4.3 µM,4.3 µM,> 100 µM,
O=C(O)C(O)=CC(=O)c1cccc(OCCc2ccccc2)c1 [Example 18],2.2 µM,2.2 µM,30 µM,
Cc1cccc(C(=O)C=C(O)C(=O)O)c1 [Example 19],11.9 µM,12 µM,77 µM,
N#CCCCOc1ccccc1C(=O)C=C(O)C(=O)O [Example 20],0.38 µM,0.38 µM,27 µM,
Cc1ccc(OCCCC#N)c(C(=O)C=C(O)C(=O)O)c1 [Example 21],0.955 µM,1 µM,> 50 µM,
O=C(O)C(O)=CC(=O)c1cccc(O)c1 [Example 23],0.94 µM,1 µM,59 µM,
O=C(O)C(=O)Nc1cccc(C(=O)C=C(O)C(=O)O)c1 [Example 24],19 µM,19 µM,71 µM,
O=C(O)CCCOc1ccccc1C(=O)C=C(O)C(=O)O [Example 27],2.84 µM,3 µM,> 50 µM,
N#CCCCOc1ccc(Cl)cc1C(=O)C=C(O)C(=O)O [Example 36],1.6 µM,1.6 µM,24 µM,
O=C(O)C(O)=CC(=O)c1ccccc1Cc1ccc(F)cc1 [Example 40],8.3 µM,8.3 µM,12 µM,
N#CCCCOc1ccc(O)cc1C(=O)C=C(O)C(=O)O [Example 53],0.115 µM,0.115 µM,37 µM,
O=C(O)C(O)=CC(=O)c1cccc(NS(=O)(=O)c2cccc3ccccc23)c1 [Example 78],0.67 µM,0.67 µM,35 µM,
